In paper PMC7173930, “EAT-18 is an essential auxiliary protein interacting with the non-alpha nAChR subunit EAT-2 to form a functional receptor” (PLoS Pathogens, 2020):
Several values for one entry are separate records, joined by “and”; a condition that tells them apart may be missing. Equal entries are not always repeated. Where two headings read alike, the source gives them in different places.

Key:
[1] = target: T1, Cel-EAT-2 and Cel-EAT-18c nAChR (Caenorhabditis elegans, UniProt Q9U298); experiment: Two-electrode voltage-clamp of Cel-EAT-2 + Cel-EAT-18c nAChR expressed in Xenopus oocytes; assay type: cell-based; conditions: for Emax at 100 µM: read-out: current response normalized to the control 100 μM ACh current (Imax)
T1 sequence (Q9U298 22-474): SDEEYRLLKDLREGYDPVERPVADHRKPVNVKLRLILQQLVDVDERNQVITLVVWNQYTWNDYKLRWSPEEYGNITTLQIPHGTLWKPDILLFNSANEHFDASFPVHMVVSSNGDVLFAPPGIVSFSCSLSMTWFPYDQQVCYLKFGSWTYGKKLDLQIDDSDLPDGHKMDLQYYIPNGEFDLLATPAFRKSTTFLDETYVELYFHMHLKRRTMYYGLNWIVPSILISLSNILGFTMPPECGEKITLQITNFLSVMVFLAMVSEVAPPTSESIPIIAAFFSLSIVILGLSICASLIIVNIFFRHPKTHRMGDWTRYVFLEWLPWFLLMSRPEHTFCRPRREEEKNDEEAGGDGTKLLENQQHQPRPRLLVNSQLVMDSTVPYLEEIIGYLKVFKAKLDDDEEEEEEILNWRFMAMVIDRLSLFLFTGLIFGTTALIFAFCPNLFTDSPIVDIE

[2] = system: nAChRs expressed in the pharynx of A. suum; experiment: tissue or blood; assay type: cell-based; conditions: for Emax: read-out: % change in membrane conductance (δG) normalized to the ACh δG
Description: A. suum pharyngeal dissections and electrophysiology recordings were adapted from Martin [49]. Briefly, pharynx was dissected out from the head region of the worm and mounted on Sylgard (Sigma-Aldrich Inc., USA)—lined in a double jacketed bath chamber maintained at 28°C. The muscle layer surrounding the anterior 3rd of the pharynx was preserved for anchoring. The intestine attached to the posterior end of the pharynx was used for stretching and pinning down. The preparation was continuously perfused with calcium-free Ascaris Perienteric Fluid-Ringer (calcium-free APF-Ringer) composition (mM): NaCl 23, Na-acetate 110, KCl 24, MgCl2 11, glucose 11, and HEPES 5; NaOH or acetic acid was added to adjust the pH to 7.6. […] The rate of localized perfusion was 3.5–4 ml min^−1 through a 20-gauge needle, which was placed directly above the recording region of the pharynx. […] We used 3 M potassium acetate in our micropipettes to get the final resistances of 4–7 MΩ for the voltage sensing and 0.5–1 MΩ for the current injecting electrode for current-clamp recordings. The current-injecting electrode injected hyperpolarizing step currents of −1000 nA for 500 ms at 0.3 Hz.
We constructed the sigmoidal concentration-response plots by fitting the data by nonlinear regression to determine the pEC50 and the maximal response (Rmax). Extra sum of squares F-test was used to test statistical differences between pEC50, slope, and maximal response. The significance levels were set to P<0.05.
In applications containing arecoline and pilocarpine, we used mecamylamine, a nAChR antagonist (30µM) to inhibit nAChRs and to allow only mAChR activation.

Asu-EAT-2 nAChR = Asu-EAT-2 nAChR (Ascaris suum, UniProt F1L9Y6); experiment: cell-based; assay type: cell-based, A. suum
[3] = system: α3β4, α3β2, α4β4 and α4β2 vertebrate nAChRs; conditions: read-out: IC50 of reversible channel block; cited from earlier work
[4] = target: T2, Cel-EAT-2 and Cel-EAT-18c receptor (Cel-EAT-2 nAChR) (Caenorhabditis elegans, UniProt Q9U298); experiment: Two-electrode voltage-clamp of oocytes expressing Cel-EAT-2 with Cel-EAT-18c; agonist peak currents normalized to 100 uM ACh and fitted to the Hill equation.; assay type: cell-based, Xenopus laevis oocytes; conditions: n = 6; read-out: pEC50 (mean±SEM) (converted)
T2 construct: homomeric EAT-2 co-expressed with Cel-EAT-18c in Xenopus laevis oocytes
Description: Oocyte injections and two-electrode electrophysiology recordings were performed as previously described [48].
GraphPad Prism 8.0 software (GraphPad Software Inc., USA) was used to analyze the data. […] We used One-way analysis of variance (ANOVA) and Extra sum of squares F-test to test statistical differences (statistically different if p<0.05). Tukeys’ multiple comparison was used as a post-hoc test.

[5] = system: A. suum muscarinic receptor; parameters: method as in earlier work; conditions: all used at 100 µM; ref 1 Kimber M.J. et al. Int J Parasitol 39: 1215-1222 (2009); cited from earlier work
[6] = agonist concentration-response, mean±SEM
[7] = read-out: current response normalized to the control 100 μM ACh current, mean±SEM, n≥5
[8] = read-out: current response normalized to the control 100 μM ACh current

Asu-EAT-2 nAChR, sequence (F1L9Y6 entry or part of it): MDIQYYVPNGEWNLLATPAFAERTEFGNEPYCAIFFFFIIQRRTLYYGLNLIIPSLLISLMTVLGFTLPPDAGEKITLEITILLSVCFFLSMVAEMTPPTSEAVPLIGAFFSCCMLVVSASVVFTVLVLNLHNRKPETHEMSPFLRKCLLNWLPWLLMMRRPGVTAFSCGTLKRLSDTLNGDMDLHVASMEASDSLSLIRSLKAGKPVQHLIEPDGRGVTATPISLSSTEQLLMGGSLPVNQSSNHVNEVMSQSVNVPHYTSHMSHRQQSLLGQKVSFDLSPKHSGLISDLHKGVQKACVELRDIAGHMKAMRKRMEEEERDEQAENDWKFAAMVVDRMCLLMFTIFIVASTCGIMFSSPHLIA
Asu-EAT-2 nAChR, sequence (F1L1D9 entry or part of it, further chain): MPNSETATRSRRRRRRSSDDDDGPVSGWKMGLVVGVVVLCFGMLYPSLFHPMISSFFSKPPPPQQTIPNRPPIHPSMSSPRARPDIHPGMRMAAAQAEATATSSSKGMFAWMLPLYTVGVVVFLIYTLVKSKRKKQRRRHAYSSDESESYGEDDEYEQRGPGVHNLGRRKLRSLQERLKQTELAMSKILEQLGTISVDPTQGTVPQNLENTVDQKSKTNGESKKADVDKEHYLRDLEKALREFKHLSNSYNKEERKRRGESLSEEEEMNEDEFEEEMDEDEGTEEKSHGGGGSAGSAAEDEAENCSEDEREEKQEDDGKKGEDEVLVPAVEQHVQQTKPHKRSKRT
T2 sequence (Q86DB4 entry or part of it, one chain of several): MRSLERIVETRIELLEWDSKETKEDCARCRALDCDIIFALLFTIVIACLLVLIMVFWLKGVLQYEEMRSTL

For `CC(=O)OCC[N+](C)(C)C` [ACh, acetylcholine], the “Hill slope (nH)” value [1, 6] was 1.9±0.3 and 1.9 ± 0.2, the Emax ([2]; Ascaris suum) was 100% and the EC50 ([2]; Ascaris suum, concentration-conductance curve, 1-1000 μM applied for 10 s, mean±SEM, read-out: pEC50 (converted)) was 10 µM. For the same molecule, the maximal response ([2]; agonist concentration-response curve) was 105.3 ± 2.5 μS, the “Hill slope (nH)” value ([2]; concentration-conductance curve, mean±SEM) was 1.8±0.3 and the “times more potent on Asu-EAT-2 nAChR compared to Cel-EAT-2” value (Asu-EAT-2 nAChR) was “≈ 9 times”. The “Hill slope (nH)” value (Asu-EAT-2 nAChR; ACh concentration-response, mean±SEM, n=6) was 3.5 ± 1.1 and the Emax at 100 µM (Asu-EAT-2 nAChR; [7]) was 100%.
With `C[N+](C)(CCOc1ccccc1)Cc1ccccc1` [bephenium] the “current response normalized to the control 100 μM ACh current (Imax)” value (“current response normalized … (Imax)” below) ([1]; agonist 100 μM, mean±SEM, n≥6) was “did not activate the receptor”, the Emax at 100 µM ([1]; agonist 100 μM, mean±SEM, n≥6) was 0% and the Emax ([2]; Ascaris suum) was 7.2 ± 3.5%. For the same molecule, the “current response normalized to the control 100 μM ACh current” value (Asu-EAT-2 nAChR; mean±SEM, n≥5) was “failed to activate the receptor” and the Emax (Asu-EAT-2 nAChR; [7]) was 0.1 ± 0.1%.
In the case of `CN1C(=O)[C@]23C[C@H]4C(C)(C)[C@]5(CNc6c5ccc5c6OC=CC(C)(C)O5)C[C@@]41CN2CC[C@@]3(C)O` [derquantel], the “Imax of ACh concentration-response in the presence of antagonist” value ([1]; antagonist 10 μM) is reported as 68.4±2.1%, the “% inhibition of 100 μM ACh membrane conductance (δG)” value [2] is reported as 30.6±7.0% and the “mean % inhibition of ACh (100 μM) mediated currents” value (Asu-EAT-2 nAChR) is reported as 72.0±3.4%.
Molecule `CN1[C@@H](CC(=O)c2ccccc2)CCC[C@H]1C[C@H](O)c1ccccc1` [lobeline] has an Emax at 100 µM ([1]; agonist 100 μM, mean±SEM, n≥6) of 0%.
In the case of `CN1[C@@H]2CC[C@H]1C[C@@H](OC(=O)C(CO)c1ccccc1)C2` (some centres unmarked) [atropine], the IC50 [3] is listed as 4 to 10 µM.
In the case of `CN1CCCN=C1/C=C/c1cccs1` [pyrantel], the Emax at 100 µM ([1]; agonist 100 μM, mean±SEM, n≥6) is reported as 0%, the Emax ([2]; Ascaris suum) is reported as 0% and the “current response normalized to the control 100 μM ACh current” value (Asu-EAT-2 nAChR) is reported as “failed to activate the receptor”. It also gave an Emax (Asu-EAT-2 nAChR; [8]) of 0%.
For `C[N+]1(C)CCN(c2ccccc2)CC1` [DMPP], the “current response normalized … (Imax)” value ([1]; agonist 100 μM, mean±SEM, n≥6) was “failed to respond”, the Emax at 100 µM ([1]; agonist 100 μM, mean±SEM, n≥6) was 0% and the Emax ([2]; Ascaris suum) was 12 ± 2.9%. It also gave an Emax (Asu-EAT-2 nAChR; [7]) of 6.6 ± 1.9%.
In the case of `CCCC(=O)OCC[N+](C)(C)C` [butyrylcholine], the “current response normalized … (Imax)” value ([1]; agonist 100 μM, mean±SEM, n≥6) is reported as 50.0±5.0%, the pEC50 ([1]; agonist concentration-response, 100 μM ACh as internal standard, mean±SEM) is reported as 3.9±0.1 and the “Hill slope (nH)” value [1, 6] is reported as 2.8±1.8. The EC50 [4] was 126 µM.
In the case of `Cc1ccsc1/C=C/C1=NCCCN1C` [morantel], the “current response normalized … (Imax)” value ([1]; agonist 100 μM, mean±SEM, n≥6) is reported as “did not activate the receptor”, the Emax ([2]; Ascaris suum) is reported as 0.3 ± 0.3% and the Emax (Asu-EAT-2 nAChR; [7]) is reported as 0%.
With `C#Cc1cncc([C@@H]2CCCN2C)c1` [SIB 1508Y] the Emax at 100 µM ([1]; agonist 100 μM, mean±SEM, n≥6) was 0%.
`c1cncc([C@@H]2CCCN2)c1` [nornicotine] gave an Emax at 100 µM ([1]; agonist 100 μM, mean±SEM, n≥6) of 0%.
In the case of `C[N+](C)(C)CCCCCC[N+](C)(C)C` [hexamethonium], the “% inhibition of 100 μM ACh membrane conductance (δG)” value [2] is reported as 26.8±1.9%.
In the case of `CC(C[N+](C)(C)C)OC(N)=O` (centres unmarked) [bethanechol], the “response relative to ACh (rank order series of muscarinic agonists)” value [5] is listed as 58%.
Work on `C[N+](C)(CCOc1ccccc1)Cc1cccs1` [thenium] yielded an Emax ([2]; Ascaris suum) of 6.1 ± 1.5% and an Emax (Asu-EAT-2 nAChR; [7]) of 0%.
Work on `c1cncc([C@@H]2CCCCN2)c1` [anabasine] yielded an Emax at 100 µM ([1]; agonist 100 μM, mean±SEM, n≥6) of 0%.
With `O=c1cccc2n1C[C@@H]1CNC[C@H]2C1` [cytisine] the Emax at 100 µM [1] was 0%, the Emax ([2]; Ascaris suum) was 71.2 ± 5% and the Emax (Asu-EAT-2 nAChR; [8]) was 81 ± 5.2%.
With α-cotinine the “current response normalized … (Imax)” value ([1]; agonist 100 μM, mean±SEM, n≥6) was 0.0±0.0%.
